Each block holds one molecule with its values, some of them ahead of it.
Tests used:
human CYP11B2 enzyme = target: T1, human CYP11B2 enzyme (Homo sapiens, UniProt P19099); assay: Enzyme inhibition activity assay in G402 cells stably expressing human CYP11B2 (aldosterone production from 11-DOC, LC/MS); format: cell-based; conditions: 1 µM 11-DOC, 16 hours, aldosterone detected
T1 construct: the ORF of human CYP11B1 or CYP11B2 were transfected into G402 cells; expressed in transfected cells
T1 sequence (P19099 25-503): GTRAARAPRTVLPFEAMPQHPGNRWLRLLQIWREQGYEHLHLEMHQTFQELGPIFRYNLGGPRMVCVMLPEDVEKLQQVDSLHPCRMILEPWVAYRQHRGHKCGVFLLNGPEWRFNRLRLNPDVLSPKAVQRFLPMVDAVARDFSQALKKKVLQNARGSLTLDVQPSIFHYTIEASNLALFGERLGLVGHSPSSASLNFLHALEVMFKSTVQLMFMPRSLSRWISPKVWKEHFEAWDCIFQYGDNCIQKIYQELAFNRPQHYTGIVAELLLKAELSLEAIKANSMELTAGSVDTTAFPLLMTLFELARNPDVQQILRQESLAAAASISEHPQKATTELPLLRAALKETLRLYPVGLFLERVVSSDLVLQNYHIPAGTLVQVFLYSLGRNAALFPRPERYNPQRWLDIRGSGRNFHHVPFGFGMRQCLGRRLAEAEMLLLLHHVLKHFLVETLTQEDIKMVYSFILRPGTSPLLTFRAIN
How it was run: (§1)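 G402 cells stably expressing human CYP11B2 or CYP11B1, preincubated 1 h with inhibitor in DMEM/F12 plus 2.5% charcoal-stripped FCS, then 16 h with 1 µM 11-DOC or 1 µM 11-DC. Aldosterone or cortisol quantified by LC/MS; IC50 from four-parameter logistic fit versus uninhibited control.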

human CYP11B1 enzyme = target: T2, human CYP11B1 enzyme (Homo sapiens, UniProt P15538); assay: Enzyme inhibition activity assay in G402 cells stably expressing human CYP11B1 (cortisol production from 11-DC, LC/MS); format: cell-based; conditions: 1 µM 11-DC, 16 hours, cortisol detected
T2 construct: the ORF of human CYP11B1 or CYP11B2 were transfected into G402 cells; expressed in transfected cells
T2 sequence (P15538 25-503): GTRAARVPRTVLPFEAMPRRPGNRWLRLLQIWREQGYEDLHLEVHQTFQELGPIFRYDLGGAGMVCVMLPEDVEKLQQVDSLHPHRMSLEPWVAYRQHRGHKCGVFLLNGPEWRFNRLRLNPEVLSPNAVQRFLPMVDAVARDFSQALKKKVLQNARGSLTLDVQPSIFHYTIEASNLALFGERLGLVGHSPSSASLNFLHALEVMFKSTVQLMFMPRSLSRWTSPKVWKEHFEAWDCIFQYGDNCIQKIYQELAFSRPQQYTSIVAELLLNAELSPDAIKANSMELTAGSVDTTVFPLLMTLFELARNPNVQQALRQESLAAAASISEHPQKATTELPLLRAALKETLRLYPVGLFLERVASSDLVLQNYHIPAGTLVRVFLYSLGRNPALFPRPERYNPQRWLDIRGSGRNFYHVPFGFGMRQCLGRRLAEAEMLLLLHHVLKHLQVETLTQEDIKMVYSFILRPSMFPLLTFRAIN
How it was run: as §1

[1] = Pharmacokinetic determination in monkeys after gavage administration (P.O.); format: in vivo, Cynomolgus monkeys (Macaca fascicularis); conditions: cynomolgus monkey, po, 1 mg/kg, plasma
Method: (§2) Cynomolgus monkeys (Macaca fascicularis) were used as test animals to study the pharmacokinetic behavior of the compounds of the present disclosure in plasma following gavage administration (P.O.). Plasma samples were collected at specific time points, compound concentrations in plasma were detected by LC-MS/MS, and pharmacokinetic parameters were calculated to reflect the pharmacokinetics in cynomolgus monkeys.
Cynomolgus monkeys, male, Ankaiyibo (Zhanjiang) Biotechnology Co., Ltd.
After administration to cynomolgus monkeys, venous blood samples of 0.3 mL were collected at 0.25, 0.5, 1, 2, 4, 8, and 24 hours and placed in EDTA-K2 test tubes. Plasma was separated by centrifugation at 4 °C, 4000 g for 5 minutes and stored at -80 °C.
• 1) 50 µL of plasma sample was precipitated by adding 200 µL of acetonitrile, vortex mixed, and centrifuged for 15 minutes. • 2) The processed supernatant was diluted with water and analyzed by LC/MS/MS to determine the concentration of the test compound.
(§3) Pharmacokinetic parameters were calculated using WinNonlin 8.3. Cmax represents the maximum plasma concentration, T1/2 represents the terminal elimination half-life, MRTInf represents the mean residence time, and AUC represents the area under the plasma concentration-time curve. Table 6 Pharmacokinetic Parameters of the Compounds of the Present Disclosure in Monkeys

[2] = Pharmacokinetic determination in mice after gavage administration (P.O.); format: in vivo; conditions: male, CD-1, mouse, po, 10 mg/kg, plasma
Method: as §2, with “Mice and rats” for “Cynomolgus monkeys (Macaca fascicularis)”, “evaluate” for “reflect”, “pharmacokinetics.” for “pharmacokinetics in cynomolgus monkeys.”
• Mice, CD-1, male, Zhejiang Vital River Laboratory Animal Technology Co., Ltd. • Rats, Sprague-Dawley, male, Zhejiang Vital River Laboratory Animal Technology Co., Ltd., Shanghai Jihui Experimental Animal Breeding Co., Ltd.
After administration to mice and rats, venous blood samples of 0.03 mL and 0.2 mL, respectively, were collected at 0.0833 (IV), 0.25, 0.5, 1, 2, 4, 8, and 24 hours and placed in EDTA-K2 test tubes. Plasma was separated by centrifugation at 4 °C, 4000 g for 5 minutes and stored at -80 °C.
• 1) 10 µL of plasma sample was precipitated by adding 200 µL of acetonitrile, vortex mixed, and centrifuged for 15 minutes. • 2) The processed supernatant was diluted with water and analyzed by LC/MS/MS to determine the concentration of the test compound.
as §3, with “8.3. The pharmacokinetic parameters for mice P.O. are shown in Table 4, and for rats P.O. in Table 5.” for “8.3.”, “4” for “6”, “Mice” for “Monkeys”

in vivo = conditions: male, Sprague-Dawley, rat, plasma, po, 10 mg/kg
Method: Mice and rats were used as test animals to study the pharmacokinetic behavior of the compounds of the present disclosure in plasma following gavage administration (P.O.). Plasma samples were collected at specific time points, compound concentrations in plasma were detected by LC-MS/MS, and pharmacokinetic parameters were calculated to evaluate the pharmacokinetics.
Pharmacokinetic parameters were calculated using WinNonlin 8.3. […] Cmax represents the maximum plasma concentration, T1/2 represents the terminal elimination half-life, MRTInf represents the mean residence time, and AUC represents the area under the plasma concentration-time curve.

[3] = added to existing treatment; within 3 months of treatment; cited from earlier work

IC50 (human CYP11B2 enzyme): 1.8 nM | IC50 (human CYP11B1 enzyme): 316 nM | Cmax ([1]; in vivo): 3.28 µM | MRT inf ([1]; in vivo): 9.14 h | half-life ([1]; in vivo): 8.48 h | AUC(0-t) at 24 h ([1]; in vivo, read-out: AUC0-24): 29.1 µM·h
SMILES: CCC(=O)N[C@@H]1CCOc2c(-c3ccc4c(c3)cc(C#N)n4C)cncc21 [Compound A10-P2]

Cmax [2]: 12.2 µM | MRT inf [2]: 3.59 h | half-life [2]: 1.86 h | AUC(0-t) ([2]; read-out: AUC0-24): 57.3 µM·h | Cmax ([1]; male): 0.834 µM | AUC(0-t) ([1]; male, read-out: AUC0-24): 6 µM·h | AUC(0-t) (in vivo): 109 µM·h | Cmax (in vivo): 11.4 µM | MRT inf (in vivo): 6.41 h | half-life (in vivo): 4.31 h
SMILES: CCC(=O)N[C@@H]1CCCc2c(-c3ccc4c(c3)CCC(=O)N4C)cncc21 [Control Compound, reference compound]

SMILES: CC(=O)S[C@@H]1CC2=CC(=O)CC[C@]2(C)[C@H]2CC[C@@]3(C)[C@@H](CC[C@@]34CCC(=O)O4)[C@H]12 [spironolactone]
patients with resistant hypertension achieving effective control of blood pressure (systolic blood pressure <135 mm Hg) [3]: 60%
